Measurements taken from patent US9597407B2, “Targeted antimicrobial moieties” (C3 Jian, Inc., priority 2009, dated 2017).
“Also recorded” adds a separate entry of the source. Ends that are not written are not given here.

What was measured:
[1] = test system: bacteria; test: Binding of targeting peptides to microorganisms (Table 3); conditions: preferably 1x PBS
[2] = test system: microorganisms; test: Morphology, biofilm and growth disruption by peptides (Table 5); assay type: cell-based; parameters: key: A: Peptide aggregates; B: Less hyphal formation; Clumps; Diffuse clumps and small polyps; F: Diffuse growth; H: Thin; I: Growth inhibition; Microcolony formation; Rippled; Small polyps; Thick; W: Halo formation on top, microlonies on bottom
Description: In certain embodiments peptides that induce alterations in phenotype or other biological activities can also be used as antimicrobial effector moieties.

[3] = peptide binding in aqueous buffers varied by peptide solubility
[4] = peptide binding in aqueous buffers that varied depending on peptide solubility
[5] = microorganism bound by the targeting peptide, binding in aqueous buffers chosen by peptide solubility
[6] = microorganism the targeting peptide binds, binding in aqueous buffers that varied with peptide solubility

For “1T-7 (SQRIIEPVKSPQPYPGFSVS; Peptide with targeting and/or antimicrobial activity) [Peptide 1T-7]”, the “Target(s) (microorganism bound by the targeting peptide)” value [1, 3] was “M. xanthus”.
“PF-679 (CRARFIRR; Peptide with targeting and/or antimicrobial activity)” was tested, and the “Target(s) (microorganism bound by the targeting peptide)” value [1, 4] was “S. mutans; also recorded: E. coli”.
With “PF-279 (SHIGFISISACLAVLLGIARLFVWTWVKFFA; Peptide with targeting and/or antimicrobial activity)” the “Target(s)” value [1, 5] was “S. mutans; also recorded: S. epidermidis; also recorded: M. luteus; also recorded: E. coli; also recorded: P. aeruginosa; also recorded: A. baumannii”.
“PF-796 (YTQSNIPTAYALMLSNKDSI; Peptide with targeting and/or antimicrobial activity)” was tested, and the “Target(s) (microorganism bound by the targeting peptide)” value [1, 4] was “S. mutans”.
For “1T-261 (SFEKNKIENNLKIAQAYIYIKPKPRICQA; Peptide with targeting and/or antimicrobial activity) [Peptide 1T-261]”, the “Target(s)” value [1, 6] was “F. nucleatum; also recorded: S. mutans; also recorded: S. oralis; also recorded: S. sanguinis”.
In the case of “1T-80 (GGNLGPGFGVIIP; Peptide with targeting and/or antimicrobial activity) [Peptide 1T-80]”, the “Target(s) (microorganism bound by the targeting peptide)” value [1, 3] was “S. pneumoniae”.
In the case of “1T-272 (QLAPIDKQLKAVKKIAFYESESTAAKAVTVA; Peptide with targeting and/or antimicrobial activity) [Peptide 1T-272]”, the “Target(s)” value [1, 6] was “F. nucleatum; also recorded: S. mutans; also recorded: S. oralis; also recorded: S. sanguinis”.
With “PF-359 (MTVMEDPGSEQRNKIQSPMKGEDFSALFGR; Peptide with targeting and/or antimicrobial activity)” the “Target(s)” value [1, 5] was “S. epidermidis and B. fragilis and P. aeruginosa and C. albicans and MRSA and E. faecalis and C. jeikeium”.
For “PF-311 (IDAVTKKKTTCMIRAPTKIPIAHTDN; Peptide with targeting and/or antimicrobial activity)”, the “Target(s)” value [1, 5] was “C. difficile”.
In the case of “1T-49 (SLVRIHDQQPWVTRGAFIDAARTCS; Peptide with targeting and/or antimicrobial activity) [Peptide 1T-49]”, the “Target(s) (microorganism bound by the targeting peptide)” value [1, 3] was “S. aureus; also recorded: S. epidermidis; also recorded: C. jeikeium; also recorded: P. aeruginosa”.
For “1T-50 (HSDEPIPNILFKSDSVH; Peptide with targeting and/or antimicrobial activity) [Peptide 1T-50]”, the “Target(s) (microorganism bound by the targeting peptide)” value [1, 3] was “P. aeruginosa”.
In the case of “PF-780 (AVYDALVALAAAEHRAELATRDARAKDTYEKIGVHVVVAA; Peptide with targeting and/or antimicrobial activity)”, the “Target(s) (microorganism bound by the targeting peptide)” value [1, 4] was “Mycobacteria spp”.
For “PF-778 (MNLILTAHGT; Peptide with targeting and/or antimicrobial activity)”, the “Target(s) (microorganism bound by the targeting peptide)” value [1, 4] was “Mycobacteria spp”.
“1T-201 (KRKHENVIVAEEMRVIKN; Peptide with targeting and/or antimicrobial activity) [Peptide 1T-201]” was tested, and the “Target(s)” value [1, 6] was “S. sanguinis”.
In the case of “PF-789 (PRGAQSGHG; Peptide with targeting and/or antimicrobial activity)”, the “Target(s) (microorganism bound by the targeting peptide)” value [1, 4] was “Mycobacteria spp”.
With “PF-410 (FALELIALCRNLFIVYFP; Peptide with targeting and/or antimicrobial activity)” the “Organism, effect” value ([2]; E. coli) was “E. coli (S)”, the “Organism, effect” value ([2]; E. faecalis) was “E. faecalis (C)” and the “Organism, effect” value ([2]; MRSA) was “MRSA (M)”. For the same substance, the “Organism, effect” value ([2]; S. epidermidis) was “S. epidermidis (C)”.
In the case of “GSVIKKRRKRMAKKKHRKLLKKTRIQRRRAGK [PF-527]”, the “Organism, effect (morphology, biofilm and growth disruption)” value ([2]; B. subtilis) was “B. subtilis (I)”, the “Organism, effect (morphology, biofilm and growth disruption)” value ([2]; C. albicans) was “C. albicans (B)” and the “Organism, effect (morphology, biofilm and growth disruption)” value ([2]; C. jeikeium) was “C. jeikeium (I)”. For the same substance, the “Organism, effect (morphology, biofilm and growth disruption)” value ([2]; C. jejuni) was “C. jejuni (M)”, the “Organism, effect (morphology, biofilm and growth disruption)” value ([2]; M. luteus) was “M. luteus (S)” and the “Organism, effect (morphology, biofilm and growth disruption)” value ([2]; MRSA) was “MRSA (I)”. The “Organism, effect (morphology, biofilm and growth disruption)” value ([2]; P. aeruginosa) was “P. aeruginosa (I)”, the “Organism, effect (morphology, biofilm and growth disruption)” value ([2]; S. epidermidis) was “S. epidermidis (M)” and the “Organism, effect (morphology, biofilm and growth disruption)” value ([2]; S. pneumoniae) was “S. pneumoniae (H)”.
“LGLTAGVAYAAQPTNQPTNQPTNQPTNQPTNQPTNQPRW-NH2 [PF-520]” was tested, and the “Organism, effect (morphology, biofilm and growth disruption)” value ([2]; S. pneumoniae) was “S. pneumoniae (M)”.
“PF-634 (chain 1 MPKARPVNHNKKKSKITIKSNFTLFYMFNP; chain 2 MPKARPVNHNKKKSKITIKSNFTLFYMFNP; Peptide with targeting and/or antimicrobial activity)” was tested, and the “Organism, effect (morphology, biofilm and growth disruption)” value ([2]; E. coli) was “E. coli (C)”, the “Organism, effect (morphology, biofilm and growth disruption)” value ([2]; M. luteus) was “M. luteus (C)” and the “Organism, effect (morphology, biofilm and growth disruption)” value ([2]; MRSA) was “MRSA (D)”. For the same substance, the “Organism, effect (morphology, biofilm and growth disruption)” value ([2]; P. mirabilis) was “P. mirabilis (C)”, the “Organism, effect (morphology, biofilm and growth disruption)” value ([2]; S. epidermidis) was “S. epidermidis (D)” and the “Organism, effect (morphology, biofilm and growth disruption)” value ([2]; S. mutans) was “S. mutans (D)”. The “Organism, effect (morphology, biofilm and growth disruption)” value ([2]; S. pneumoniae) was “S. pneumoniae (D)”.
For “PF-532 (KFIYKYKLSFIIYKILIQTLTMELNK; Peptide with targeting and/or antimicrobial activity)”, the “Organism, effect (morphology, biofilm and growth disruption)” value ([2]; E. coli) was “E. coli (C)”, the “Organism, effect (morphology, biofilm and growth disruption)” value ([2]; E. faecalis) was “E. faecalis (C)” and the “Organism, effect (morphology, biofilm and growth disruption)” value ([2]; MRSA) was “MRSA (C)”. For the same substance, the “Organism, effect (morphology, biofilm and growth disruption)” value ([2]; S. pneumoniae) was “S. pneumoniae (C)”.
For MGIIAGIIKVIKSLIEQFTGK [PF-007], the “Organism, effect” value ([2]; E. coli) was “E. coli (A)”, the “Organism, effect” value ([2]; E. faecalis) was “E. faecalis (A)” and the “Organism, effect” value ([2]; M. luteus) was “M. luteus (A)”. The “Organism, effect” value ([2]; MRSA) was “MRSA (R)” and the “Organism, effect” value ([2]; S. epidermidis) was “S. epidermidis (A)”.
In the case of “PF-468 (EDNKDKKDKKDK; Peptide with targeting and/or antimicrobial activity)”, the “Organism, effect (morphology, biofilm and growth disruption)” value ([2]; S. pneumoniae) was “S. pneumoniae (H)”.
In the case of “PF-432 (FNGDSEFFLCIAF; Peptide with targeting and/or antimicrobial activity)”, the “Organism, effect (morphology, biofilm and growth disruption)” value ([2]; C. jejuni) was “C. jejuni (D)”, the “Organism, effect (morphology, biofilm and growth disruption)” value ([2]; E. coli) was “E. coli (R)” and the “Organism, effect (morphology, biofilm and growth disruption)” value ([2]; E. faecalis) was “E. faecalis (D)”. For the same substance, the “Organism, effect (morphology, biofilm and growth disruption)” value ([2]; MRSA) was “MRSA (M)”, the “Organism, effect (morphology, biofilm and growth disruption)” value ([2]; P. aeruginosa) was “P. aeruginosa (A)” and the “Organism, effect (morphology, biofilm and growth disruption)” value ([2]; S. epidermidis) was “S. epidermidis (M)”. The “Organism, effect (morphology, biofilm and growth disruption)” value ([2]; S. pneumoniae) was “S. pneumoniae (D)”.
With YIQFHLNQQPRPKVKKIKIFL-NH2 [PF-531] the “Organism, effect (morphology, biofilm and growth disruption)” value ([2]; E. coli) was “E. coli (M)”, the “Organism, effect (morphology, biofilm and growth disruption)” value ([2]; P. aeruginosa) was “P. aeruginosa (I)” and the “Organism, effect (morphology, biofilm and growth disruption)” value ([2]; S. epidermidis) was “S. epidermidis (I)”. For the same substance, the “Organism, effect (morphology, biofilm and growth disruption)” value ([2]; S. pneumoniae) was “S. pneumoniae (C)”.
With KFSDQIDKGQDALKDKLGDL [PF-525] the “Organism, effect (morphology, biofilm and growth disruption)” value ([2]; S. pneumoniae) was “S. pneumoniae (H)”.
“PF-178 (EVYSSPTNNVAITVQNN; Peptide with targeting and/or antimicrobial activity)” was tested, and the “Organism, effect” value ([2]; E. coli) was “E. coli (C)”, the “Organism, effect” value ([2]; MRSA) was “MRSA (M)” and the “Organism, effect” value ([2]; S. epidermidis) was “S. epidermidis (D)”. For the same substance, the “Organism, effect” value ([2]; S. pneumoniae) was “S. pneumoniae (D)”.
For “PF-125 (YVVGALVILAVAGLIYSMLRKA; Peptide with targeting and/or antimicrobial activity)”, the “Organism, effect” value ([2]; M. luteus) was “M. luteus (C)” and the “Organism, effect” value ([2]; S. epidermidis) was “S. epidermidis (D)”.
In the case of “PF-571 (SDLLYYPNENREDSPAGVVKEVKE; Peptide with targeting and/or antimicrobial activity)”, the “Organism, effect (morphology, biofilm and growth disruption)” value ([2]; B. subtilis) was “B. subtilis (D)”.
With “PF-059 (TITLKAGIERALHEEVPGVIEVEQVF; Peptide with targeting and/or antimicrobial activity)” the “Organism, effect” value ([2]; C. jejuni) was “C. jejuni (C)”.
For “PF-624 (VFLLDSYCFVKINL; Peptide with targeting and/or antimicrobial activity)”, the “Organism, effect (morphology, biofilm and growth disruption)” value ([2]; E. coli) was “E. coli (C)”, the “Organism, effect (morphology, biofilm and growth disruption)” value ([2]; M. luteus) was “M. luteus (C)” and the “Organism, effect (morphology, biofilm and growth disruption)” value ([2]; MRSA) was “MRSA (C)”. For the same substance, the “Organism, effect (morphology, biofilm and growth disruption)” value ([2]; P. mirabilis) was “P. mirabilis (C)”, the “Organism, effect (morphology, biofilm and growth disruption)” value ([2]; S. epidermidis) was “S. epidermidis (D)” and the “Organism, effect (morphology, biofilm and growth disruption)” value ([2]; S. mutans) was “S. mutans (D)”. The “Organism, effect (morphology, biofilm and growth disruption)” value ([2]; S. pneumoniae) was “S. pneumoniae (D)”.
In the case of “PF-139 (ALSKPAIQARTLCRRQDPP; Peptide with targeting and/or antimicrobial activity)”, the “Organism, effect” value ([2]; C. jeikeium) was “C. jeikeium (R)”, the “Organism, effect” value ([2]; M. luteus) was “M. luteus (C)” and the “Organism, effect” value ([2]; S. epidermidis) was “S. epidermidis (M)”.
In the case of “PF-264 (MQSLSNRQSLIASYILMGIFLSFGYPPASLSKFFCRLSHL; Peptide with targeting and/or antimicrobial activity)”, the “Organism, effect” value ([2]; M. luteus) was “M. luteus (H)”.
“PF-335 (AAYPIEDWSDWYEDFFIMLSNI; Peptide with targeting and/or antimicrobial activity)” was tested, and the “Organism, effect” value ([2]; B. subtilis) was “B. subtilis (C)” and the “Organism, effect” value ([2]; S. epidermidis) was “S. epidermidis (C)”.
For PF-534 (KYFHLFYHNIIHYSKQHLSLKVDFKN-NH2), the “Organism, effect (morphology, biofilm and growth disruption)” value ([2]; E. coli) was “E. coli (R)”, the “Organism, effect (morphology, biofilm and growth disruption)” value ([2]; E. faecalis) was “E. faecalis (C)” and the “Organism, effect (morphology, biofilm and growth disruption)” value ([2]; MRSA) was “MRSA (C)”. For the same substance, the “Organism, effect (morphology, biofilm and growth disruption)” value ([2]; S. epidermidis) was “S. epidermidis (C)” and the “Organism, effect (morphology, biofilm and growth disruption)” value ([2]; S. pneumoniae) was “S. pneumoniae (R)”.
For “PF-157 (HTAVVWLAGVSGCVALSHCEPA; Peptide with targeting and/or antimicrobial activity)”, the “Organism, effect” value ([2]; S. epidermidis) was “S. epidermidis (M)”.
For MIHLTKQNTMEALHFIKQFYDMFFILNFNV [PF-040], the “Organism, effect” value ([2]; B. subtilis) was “B. subtilis (D)”, the “Organism, effect” value ([2]; C. jeikeium) was “C. jeikeium (D)” and the “Organism, effect” value ([2]; C. jejuni) was “C. jejuni (D)”. The “Organism, effect” value ([2]; E. coli) was “E. coli (C)”, the “Organism, effect” value ([2]; M. luteus) was “M. luteus (D)” and the “Organism, effect” value ([2]; MRSA) was “MRSA (D)”. The “Organism, effect” value ([2]; P. mirabilis) was “P. mirabilis (C)”, the “Organism, effect” value ([2]; S. epidermidis) was “S. epidermidis (D)” and the “Organism, effect” value ([2]; S. mutans) was “S. mutans (F)”. For the same substance, the “Organism, effect” value ([2]; S. pneumoniae) was “S. pneumoniae (D)”.
